The test system of data set [1] is Spodoptera litura. In words: Drug uptake in Spodoptera litura assessed as surface residue level 0.2 ug/insect after 4 hr. To be noted: in vivo. Format: ADME, organism-based.
The subject of data set [2] is Spodoptera litura. The experiment in a line: Drug uptake in Spodoptera litura assessed as surface residue level 0.2 ug/insect after 24 hr. Format: ADME, organism-based. Particulars: in vivo, topical_or_ocular.
Data set [3] relates to Spodoptera litura. In words: Drug uptake in Spodoptera litura assessed as recovered drug level 0.2 ug/insect after 24 hr. Format: ADME, organism-based. To be noted: in vivo.
Data set [4] concerns Spodoptera litura. The experiment in a line: Drug uptake in Spodoptera litura assessed as penetrated drug level 0.2 ug/insect after 24 hr. Format: ADME, organism-based. To be noted: in vivo.
Data set [5] relates to Spodoptera litura. The experiment in a line: Drug uptake in Spodoptera litura assessed as recovered drug level 0.2 ug/insect after 4 hr. It is filed as ADME, organism-based. To be noted: in vivo.
Data set [6] can be described thus: Octanol-water partition coefficient, log P of the compound by shake-flask method. Format: physicochemical.
Data set [7] concerns Spodoptera litura. In words: Drug uptake in Spodoptera litura assessed as penetrated drug level 0.2 ug/insect after 4 hr. It is filed as ADME, organism-based. To be noted: in vivo.
For data set [8], the system named is Spodoptera litura. In words: Drug uptake in Spodoptera litura assessed as unchanged drug level 0.2 ug/insect after 4 hr. Format: ADME, organism-based. To be noted: in vivo.
The test system of data set [9] is Spodoptera litura. The experiment in a line: Drug uptake in Spodoptera litura assessed as unchanged drug level 0.2 ug/insect after 2 hr. Format: ADME, organism-based. To be noted: in vivo.
For data set [10], the system named is Spodoptera litura. The experiment in a line: Drug uptake in Spodoptera litura assessed as recovered drug level 0.2 ug/insect after 2 hr. It is filed as ADME, organism-based. Particulars: in vivo.
Data set [11] relates to Spodoptera litura. In words: Drug uptake in Spodoptera litura assessed as surface residue level 0.2 ug/insect after 2 hr. To be noted: in vivo. It is filed as ADME, organism-based.
The test system of data set [12] is Spodoptera litura. The experiment in a line: Drug uptake in Spodoptera litura assessed as penetrated drug level 0.2 ug/insect after 2 hr. Format: ADME, organism-based. Particulars: in vivo.
Data set [13] has as its system Spodoptera litura. The experiment in a line: Drug uptake in Spodoptera litura assessed as recovered drug level 0.2 ug/insect after 3 hr. It is filed as ADME, organism-based. To be noted: in vivo.
Data set [14] has as its system Spodoptera litura. In words: Drug uptake in Spodoptera litura assessed as recovered drug level 0.2 ug/insect after 16 hr. Format: ADME, organism-based. To be noted: in vivo.
Data set [15] relates to Spodoptera litura. The experiment in a line: Drug uptake in Spodoptera litura assessed as penetrated drug level 0.2 ug/insect after 3 hr. It is filed as ADME, organism-based. To be noted: in vivo.
Data set [16] has as its system Spodoptera litura. In words: Drug uptake in Spodoptera litura assessed as penetrated drug level 0.2 ug/insect after 16 hr. It is filed as ADME, organism-based. To be noted: in vivo.
Data set [17] deals with Spodoptera litura. The experiment in a line: Drug uptake in Spodoptera litura assessed as surface residue level 0.2 ug/insect after 16 hr. Format: ADME, organism-based. Particulars: in vivo, topical_or_ocular.
Data set [18] relates to Spodoptera litura. The experiment in a line: Drug uptake in Spodoptera litura assessed as unchanged drug level 0.2 ug/insect after 3 hr. Format: ADME, organism-based. To be noted: in vivo.
Data set [19] concerns Spodoptera litura. The experiment in a line: Drug uptake in Spodoptera litura assessed as surface residue level 0.2 ug/insect after 3 hr. Format: ADME, organism-based. Particulars: in vivo.
Data set [20] deals with Spodoptera litura. In words: Drug uptake in Spodoptera litura assessed as recovered drug level 0.2 ug/insect after 6 hr. Format: ADME, organism-based. Particulars: in vivo.
Data set [21] deals with Spodoptera litura. In words: Drug uptake in Spodoptera litura assessed as surface residue level 0.2 ug/insect after 1 hr. Format: ADME, organism-based. To be noted: in vivo.
Data set [22] concerns Spodoptera litura. In words: Drug uptake in Spodoptera litura assessed as unchanged drug level 0.2 ug/insect after 1 hr. Format: ADME, organism-based. Particulars: in vivo.
Data set [23] deals with Spodoptera litura. The experiment in a line: Drug uptake in Spodoptera litura assessed as penetrated drug level 0.2 ug/insect after 1 hr. Format: ADME, organism-based. To be noted: in vivo.
Data set [24] deals with Spodoptera litura. The experiment in a line: Drug uptake in Spodoptera litura assessed as surface residue level 0.2 ug/insect after 6 hr. It is filed as ADME, organism-based. Particulars: in vivo.
Data set [25] concerns Spodoptera litura. The experiment in a line: Drug uptake in Spodoptera litura assessed as penetrated drug level 0.2 ug/insect after 6 hr. It is filed as ADME, organism-based. Particulars: in vivo.
Data set [26] concerns Spodoptera litura. The experiment in a line: Drug uptake in Spodoptera litura assessed as recovered drug level 0.2 ug/insect after 1 hr. It is filed as ADME, organism-based. To be noted: in vivo.
Data set [27] concerns Spodoptera litura. The experiment in a line: Drug uptake in Spodoptera litura assessed as surface residue level 0.2 ug/insect after 8 hr. Particulars: in vivo. It is filed as ADME, organism-based.
Data set [28] has as its system Spodoptera litura. The experiment in a line: Drug uptake in Spodoptera litura assessed as recovered drug level 0.2 ug/insect after 8 hr. Format: ADME, organism-based. Particulars: in vivo.
Data set [29] concerns Spodoptera litura. The experiment in a line: Drug uptake in Spodoptera litura assessed as penetrated drug level 0.2 ug/insect after 8 hr. Format: ADME, organism-based. To be noted: in vivo.
For data set [30], the system named is Spodoptera litura. The experiment in a line: Drug uptake in Spodoptera litura assessed as unchanged drug level 0.2 ug/insect after 8 hr. To be noted: in vivo. It is filed as ADME, organism-based.
Data set [31] relates to Spodoptera litura. In words: Drug uptake in Spodoptera litura assessed as surface residue level 0.2 ug/insect after 0.5 hr. It is filed as ADME, organism-based. Particulars: in vivo, topical_or_ocular.
The subject of data set [32] is Spodoptera litura. In words: Drug uptake in Spodoptera litura assessed as penetrated drug level 0.2 ug/insect after 0.5 hr. It is filed as ADME, organism-based. To be noted: in vivo.
In data set [33] the test system is Spodoptera litura. In words: Drug uptake in Spodoptera litura assessed as unchanged drug level 0.2 ug/insect after 0.5 hr. Particulars: in vivo. Format: ADME, organism-based.
The test system of data set [34] is Spodoptera litura. In words: Drug uptake in Spodoptera litura assessed as recovered drug level 0.2 ug/insect after 0.5 hr. Format: ADME, organism-based. To be noted: in vivo.

`CC(COc1ccc(Oc2ccccc2)cc1)Oc1ccccn1` (centres undefined) [PYRIPROXYFEN]: the Drug uptake in the data set on Spodoptera litura [1] worked out at 56.4%; with Spodoptera litura [2], 7.6%; in the data set on Spodoptera litura [4] it was 76.4%; with Spodoptera litura [7], 40.3%; with Spodoptera litura [8], 55.3%. Also, the Drug recovery is given as 84% in the data set with Spodoptera litura [3] and 96.7% in the data set with Spodoptera litura [5]. In [6], this molecule had a logP of 5.31.
For `CC1(C)C(C(=O)OC(C#N)c2cccc(Oc3ccccc3)c2)C1(C)C` (centres undefined) [FENPROPATHRIN], the Drug uptake in the data set with Spodoptera litura [1] is recorded as 69.2%; in the data set on Spodoptera litura [9] it was 66.5%; in the data set with Spodoptera litura [11], 68.8%; in the data set with Spodoptera litura [7] it was 13.1%; in the data set with Spodoptera litura [12] it was 22%. Besides, the Drug recovery in the data set on Spodoptera litura [10] was determined as 90.8%; in the data set on Spodoptera litura [5], 82.3%. In data set [6], the logP was 6.
On to `CCOc1ccc(NC(=O)OC(C)C)cc1OCC` [DIETHENOFENCARB], for which the Drug recovery with Spodoptera litura [13] is recorded as 88.5%; with Spodoptera litura [14] it was 81.7%. The Drug uptake is reported as 31.9% with Spodoptera litura [15]; 63.5% in the data set with Spodoptera litura [16]; 18.1% with Spodoptera litura [17]; 52.6% in the data set with Spodoptera litura [18]; 56.6% in the data set on Spodoptera litura [19]. Also, the lipophilicity (logP) in [6] amounted to 3.02.
Consider `COP(=S)(OC)Oc1ccc([N+](=O)[O-])c(C)c1` [FENITROTHION], for which the figures for the Drug recovery in the data set with Spodoptera litura [20] and in the data set with Spodoptera litura [26] were 81.8% and 94.8%, respectively. In the data set with Spodoptera litura [21], the Surface residue amounted to 43.6%. The Drug uptake in the data set on Spodoptera litura [22] is recorded as 40.9%; in the data set on Spodoptera litura [23], 51.2%; with Spodoptera litura [24] it was 10.8%; in the data set on Spodoptera litura [25], 71%.
With `CCOP(=S)(OCC)Oc1ccc([N+](=O)[O-])cc1` [PARATHION], the Drug recovery in the data set on Spodoptera litura [20] is on record as 89.8%; in the data set with Spodoptera litura [26], 95.6%. Moreover, the Surface residue with Spodoptera litura [21] amounted to 60.6%. Besides, the Drug uptake came to 56.8% in the data set on Spodoptera litura [22], 35% in the data set on Spodoptera litura [23], 10.9% in the data set on Spodoptera litura [24] and 78.9% in the data set with Spodoptera litura [25].
With `CCOP(=S)(Oc1ccc(C#N)cc1)c1ccccc1` (centres undefined) [CYANOFENPHOS], the Drug recovery in the data set with Spodoptera litura [13] was determined as 96.4%; in the data set with Spodoptera litura [28], 96%. Also, the Drug uptake is 56.5% with Spodoptera litura [15]; 11.3% in the data set with Spodoptera litura [27]; 37.4% with Spodoptera litura [18]; 39.9% in the data set with Spodoptera litura [19]; 84.6% in the data set on Spodoptera litura [29].
On to `COP(=S)(OC)Oc1ccc(C#N)cc1` [CYANOPHOS], for which the Drug recovery is recorded as 80.9% in the data set on Spodoptera litura [20] and 76.6% with Spodoptera litura [26]. In the data set on Spodoptera litura [21], the Surface residue is listed as 37.4%. Besides, the Drug uptake in the data set on Spodoptera litura [22] stood at 34.3%; with Spodoptera litura [23], 39.2%; in the data set with Spodoptera litura [24], 8.1%; in the data set on Spodoptera litura [25], 72.8%. In addition, the logP in [6] came to 2.65.
On to `CC(C)(C)N(NC(=O)c1ccccc1)C(=O)c1ccccc1` [RH-5849], for which the Drug uptake is on record as 50.2% in the data set with Spodoptera litura [2] and 52.3% with Spodoptera litura [27]. The Drug recovery in the data set with Spodoptera litura [30] is 38.4%.
For the molecule `COP(=O)(OC)Oc1ccc(C#N)cc1` [CYANOPHOS-OXON], the Drug uptake in the data set on Spodoptera litura [31] came to 34.5%; in the data set on Spodoptera litura [32] it was 55.4%; with Spodoptera litura [23], 65.5%; with Spodoptera litura [33], 29.3%. In addition, the Surface residue in the data set with Spodoptera litura [21] stood at 31.2%. In data set [6], this molecule had a logP of 0.84. In addition, the Drug recovery worked out at 89.9% in the data set with Spodoptera litura [34] and 96.7% in the data set with Spodoptera litura [26].
For `CC(C)=C[C@@H]1[C@@H](C(=O)OCN2C(=O)C3=C(CCCC3)C2=O)C1(C)C` [(1R)-TRANS-TETRAMETHRIN], the Drug recovery in the data set with Spodoptera litura [14] was determined as 80.1%; with Spodoptera litura [28], 84.9%. Also, the Drug uptake is 63.7% in the data set with Spodoptera litura [27]; 60.3% in the data set with Spodoptera litura [30]; 35.2% with Spodoptera litura [16]; 44.9% in the data set with Spodoptera litura [17]; 21.2% with Spodoptera litura [29]. Further, the logP in data set [6] amounted to 4.73.
On to `COP(=O)(OC)Oc1ccc([N+](=O)[O-])c(C)c1` [FENITROXON], for which the values for the Drug recovery in the data set on Spodoptera litura [13] and in the data set with Spodoptera litura [34] were 87.8% and 96.4%, respectively. In addition, the Drug uptake worked out at 44.9% in the data set on Spodoptera litura [31]; 62.4% in the data set with Spodoptera litura [15]; 51.5% with Spodoptera litura [32]; 25.3% with Spodoptera litura [19]; 42.7% in the data set with Spodoptera litura [33].

Usually logP stands for a log measure of how a compound divides between an organic and an aqueous phase. Read a low logP as a more hydrophilic compound.

The record behind these values is ChEMBL document CHEMBL3046197, “Relation between Penetration Rates of Pesticides and Partition Coefficients in Topical Application to Spodoptera litura” (J Pestic Sci, 2001).
